# Laboratory results from patent US20250333397A1 (REMIX THERAPEUTICS INC., priority 2021, published 2025).
# Like-named read-outs stand apart in the source and are kept apart here.
# Experiments:
# Type in all cases: cell-based, human
# HTT mRNA = assay: RT-qPCR splicing assay, HTT canonical (CJ) and alternative (AJ) junction mRNA; conditions: Homo sapiens; for AC50: read-out: HTT AJ (AC50, increase in AJ mRNA)
# Summary of the method: (§1)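 24 h compound exposure of A673 or K562 cells at 37 °C, 10 uM top final concentration, 3-fold steps, DMSO ≤0.25%. Splice-isoform levels determined by qPCR on cDNA from lysates, run at least in duplicate; values expressed as RQ normalized to GAPDH, GUSB or PPIA and DMSO.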
# MYB mRNA = assay: RT-qPCR splicing assay, MYB canonical (CJ) and alternative (AJ) junction mRNA; conditions: Homo sapiens; for AC50: read-out: MYB AJ (AC50, increase in AJ mRNA)
# Summary of the method: as §1
# SMN2 mRNA = assay: RT-qPCR splicing assay panel, SMN2 canonical junction (CJ) mRNA; conditions: Homo sapiens
# Summary of the method: as §1
# Target C mRNA = assay: RT-qPCR splicing assay panel, Target C canonical junction (CJ) mRNA; conditions: Homo sapiens
# Summary of the method: as §1
# [1] = 24 h, Table 3A, A673 or K562 cells, 24 h treatment
# [2] = 24 h, Table 3A, A673 or K562 cells, 24 h treatment, read-out: HTT CJ (IC50, decrease in CJ mRNA)
# [3] = canonical junction (CJ) mRNA, RT-qPCR panel, Table 4A, read-out: HTT, decrease in CJ mRNA levels, IC50
# [4] = 24 h, Table 3A, A673 or K562 cells, 24 h treatment, read-out: MYB CJ (IC50, decrease in CJ mRNA)
# [5] = canonical junction (CJ) mRNA, RT-qPCR panel, Table 4A, read-out: MYB, decrease in CJ mRNA levels, IC50
# [6] = canonical junction (CJ) mRNA, RT-qPCR panel, Table 4A, read-out: SMN2, decrease in CJ mRNA levels, IC50
# [7] = canonical junction (CJ) mRNA, RT-qPCR panel, Table 4A, read-out: Target C, decrease in CJ mRNA levels, IC50
# [8] = 24 h, Table 3B, A673 or K562 cells, 24 h treatment
SMILES,IC50 (HTT mRNA; [2]) [nM],IC50 (HTT mRNA; [3]) [nM],IC50 (MYB mRNA; [4]) [nM],IC50 (MYB mRNA; [5]) [nM],IC50 (SMN2 mRNA; [6]) [nM],IC50 (Target C mRNA; [7]) [nM],"IC50 (HTT mRNA; 24 h, Table 3B, A673 or K562 cells, 24 h treatment, read-out: HTT CJ (IC50, decrease in CJ mRNA)) [nM]","IC50 (HTT mRNA; Table 4B, gene panel, read-out: HTT (IC50, decrease in CJ mRNA levels)) [nM]","IC50 (MYB mRNA; 24 h, Table 3B, A673 or K562 cells, 24 h treatment, read-out: MYB CJ (IC50, decrease in CJ mRNA)) [nM]","IC50 (MYB mRNA; Table 4B, gene panel, read-out: MYB (IC50, decrease in CJ mRNA levels)) [nM]","IC50 (SMN2 mRNA; Table 4B, gene panel, read-out: SMN2 (IC50, decrease in CJ mRNA levels)) [nM]","IC50 (Target C mRNA; Table 4B, gene panel, read-out: Target C (IC50, decrease in CJ mRNA levels)) [nM]",AC50 (HTT mRNA; [1]) [nM],AC50 (MYB mRNA; [1]) [nM],AC50 (HTT mRNA; [8]) [nM],AC50 (MYB mRNA; [8]) [nM]
"COc1cc(-c2ccc(-c3ccc(N4CC[C@@H](CNC5CCC5)C4)nn3)c(O)c2)cnn1 [Compound 440, 2-{6-[(3S)-3-[(cyclobutylamino)methyl]pyrrolidin-1-yl]pyridazin-3-yl}-5-(6-methoxypyridazin-4-yl)phenol]",< 100,< 100,100 to 1000,100 to 1000,< 100,100 to 1000,–,–,–,–,–,–,100 to 1000,100 to 1000,–,–
Cc1nc(F)c(-c2cc(O)c(-c3ccc(N4CCC(NC5CCC5)C4)nn3)cc2F)s1 (stereo not shown) [Compound 378],100 to 1000,100 to 1000,1000 to 10000,1000 to 10000,100 to 1000,1000 to 10000,–,–,–,–,–,–,100 to 1000,1000 to 10000,–,–
Cc1ncc(-c2cc(O)c(-c3ccc(N4CCC(NC5CCCC5)C4)nn3)cc2F)s1 (stereo not shown) [Compound 391],< 100,< 100,< 100,< 100,< 100,< 100,–,–,–,–,–,–,< 100,100 to 1000,–,–
"COc1cc(-c2ccc(-c3ccc(N4CCC(NC(C)(C)C)C4=O)nn3)c(O)c2)cnn1 (stereo not shown) [Compound 219, 3-(tert-butylamino)-1-{6-[2-hydroxy-4-(6-methoxypyridazin-4-yl)phenyl]pyridazin-3-yl}pyrrolidin-2-one]",1000 to 10000,1000 to 10000,1000 to 10000,1000 to 10000,1000 to 10000,1000 to 10000,–,–,–,–,–,–,1000 to 10000,1000 to 10000,–,–
"Cc1ncc(-c2ccc(-c3ccc(N4CC[C@@H](N(C)C5CCC5)C4)nn3)c(O)c2)s1 [Compound 270, 2-{6-[(3R)-3-[cyclobutyl(methyl)amino]pyrrolidin-1-yl]pyridazin-3-yl}-5-(2-methyl-1,3-thiazol-5-yl) phenol]",> 10000,> 10000,> 10000,> 10000,100 to 1000,> 10000,–,–,–,–,–,–,> 10000,> 10000,–,–
COc1cc(-c2cc(O)c(-c3ccc(N4CC[C@@H](NC(C)(C)C)C4)nn3)cc2F)ncn1 [Compound 396],100 to 1000,100 to 1000,1000 to 10000,1000 to 10000,< 100,1000 to 10000,–,–,–,–,–,–,1000 to 10000,1000 to 10000,–,–
Cc1nnc(-c2ccc(-c3ccc(N4CC[C@@H](NCC5CC5)C4)nn3)c(O)c2)s1 [Compound 415],< 100,< 100,100 to 1000,100 to 1000,< 100,100 to 1000,–,–,–,–,–,–,< 100,100 to 1000,–,–

# Now from value to compound, other results behind:
IC50 (HTT mRNA; [2]) [nM],IC50 (HTT mRNA; [3]) [nM],IC50 (MYB mRNA; [4]) [nM],IC50 (MYB mRNA; [5]) [nM],IC50 (SMN2 mRNA; [6]) [nM],IC50 (Target C mRNA; [7]) [nM],"IC50 (HTT mRNA; 24 h, Table 3B, A673 or K562 cells, 24 h treatment, read-out: HTT CJ (IC50, decrease in CJ mRNA)) [nM]","IC50 (HTT mRNA; Table 4B, gene panel, read-out: HTT (IC50, decrease in CJ mRNA levels)) [nM]","IC50 (MYB mRNA; 24 h, Table 3B, A673 or K562 cells, 24 h treatment, read-out: MYB CJ (IC50, decrease in CJ mRNA)) [nM]","IC50 (MYB mRNA; Table 4B, gene panel, read-out: MYB (IC50, decrease in CJ mRNA levels)) [nM]","IC50 (SMN2 mRNA; Table 4B, gene panel, read-out: SMN2 (IC50, decrease in CJ mRNA levels)) [nM]","IC50 (Target C mRNA; Table 4B, gene panel, read-out: Target C (IC50, decrease in CJ mRNA levels)) [nM]",SMILES,AC50 (HTT mRNA; [1]) [nM],AC50 (MYB mRNA; [1]) [nM],AC50 (HTT mRNA; [8]) [nM],AC50 (MYB mRNA; [8]) [nM]
100 to 1000,100 to 1000,1000 to 10000,1000 to 10000,100 to 1000,1000 to 10000,–,–,–,–,–,–,COc1cc(-c2ccc(-c3ccc(N4CCC(NC5CCC5)C4)nn3)c(O)c2)ccn1 (stereo not shown) [Compound 305],100 to 1000,1000 to 10000,–,–
–,–,–,–,–,–,< 100,< 100,100 to 1000,100 to 1000,< 100,100 to 1000,Cc1nc2cc(O)c(-c3cnc(N4CC[C@H](N(C)C(C)(C)C)C4)nn3)cc2o1 [Compound 857],–,–,100 to 1000,100 to 1000
< 100,< 100,100 to 1000,100 to 1000,< 100,100 to 1000,–,–,–,–,–,–,"COc1cc(-c2cc(O)c(-c3ccc(N4CCC(C)(NC5CCC5)C4)nn3)cc2F)cnn1 (stereo not shown) [Compound 310, 2-{6-[3-(cyclobutylamino)-3-methylpyrrolidin-1-yl]pyridazin-3-yl}-4-fluoro-5-(6-methoxypyridazin-4-yl)phenol]",100 to 1000,100 to 1000,–,–
< 100,< 100,100 to 1000,100 to 1000,< 100,100 to 1000,–,–,–,–,–,–,COc1cc(-c2cc(O)c(-c3ccc(N4CCC(C)(NC(C)C)C4)nn3)cc2F)cnn1 (stereo not shown) [Compound 284],< 100,100 to 1000,–,–
